Experimental data as given in publication PMC2700083, “A covalent peptide inhibitor of RGS4 identified in a focused one-bead, one compound library screen” (BMC Pharmacology, 2009).
Converted amounts (≈) assume the structure as drawn. Marks after values point to notes of the source that are not given here. *1 amine or outer side, *2 acyl side, *3 side chain or, on linkers, in order; H or OH if unused. Where a SMILES comes first, the peptide text is derived from it. Bridges are numbered along the chain shown (N, C = ends). CH2 = C([*:1])[*:2]

Legend:
[1] = target: T1, RGS4 (Rattus norvegicus, UniProt P49799); assay: FCPIA (flow cytometry protein interaction assay), RGS4-Gαo interaction, wild type RGS4 (MBP-RGS4Δ51N); format: binding
T1 construct: made in house
T1 sequence (P49799 52-205 limits assumed): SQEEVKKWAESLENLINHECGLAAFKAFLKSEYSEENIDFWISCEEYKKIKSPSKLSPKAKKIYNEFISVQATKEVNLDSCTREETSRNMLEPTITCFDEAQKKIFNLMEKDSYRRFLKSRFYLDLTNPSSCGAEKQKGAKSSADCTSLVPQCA
Procedure: (§1) We recently described a bead-based screen in which 2.5 × 10^6 different peptide sequences were prepared as a OBOC library. Fluorescently labeled RGS4 was used to probe the library for peptides that bind RGS4 [5]. […] Since the majority of those hit peptides could bind tightly to the RGS without disrupting GAP activity, they were also tested in the flow cytometry protein interaction assay (FCPIA) (Figure 1), which measures the interaction between RGS4 and Gαo. In this method we used a Luminex flow cytometer to detect the binding of Alexa Fluor 532-labeled Gαo to biotinylated RGS4 on avidin beads in the presence of AMF (AlCl3, MgCl2, NaF and GDP) to put the Gα subunit into a transition state-like conformation. Peptides were tested at 50 μM except where limited by solubility (Table 1).
Figure 1 Hit peptides in the FCPIA. Hit peptides from Roof, et al. 2008 were tested at 50 μM unless otherwise indicated for ability to disrupt the RGS4-Gαo interaction as described using 25 nM Gα o-Alexa Fluor-532 and 5 nM wild type RGS4-biotin (mean ± S.E.M., n ≥ 3) *p < 0.05, **p < 0.01, ***p < 0.001 compared to no peptide.
(§2) Proteins were expressed, purified and labeled as described previously. The mutagenesis was done using the "QuickChange Multi Site-Directed Mutagenesis Kit" from Stratagene according to the manufacturer's protocol. The construct of RGS4 used in these studies is a maltose binding protein (MBP-) fusion protein of the RGS4 sequence from which the amphipathic N-terminal helix has been removed (i.e. MBP-RGS4Δ51N). For simplicity in the text, this will be referred to as RGS4. All other RGS proteins were human sequences and were used as Mpb fusions: RGS7 RGS domain (aa: 305–453), RGS8 full length, RGS16 full length, and RGS19ΔC11 (amino acids 1–209). To cleave RGS4Δ51N from the MBP-His6 construct for MS analysis, MBP-His6-RGS4Δ51N was treated with 15% MBP-His6-TEV protease S219V [11] for 22 hours at 4°C and purified over a Ni-NTA column.
FCPIA was performed as previously published.

[2] = Solubility in buffer by HPLC; format: physicochemical; details: in buffer, determined by HPLC; for solubility: read-out: Buffer Solubility
Procedure: Soluble peptides were synthesized on Rink resin, cleaved and cyclized as described previously. Peptide purity (at least 95%) and solubility were verified by high-performance liquid chromatography and correct mass was verified by MS analysis. ALogP calculations are from. Peptides were prepared as 5 mM stocks in DMSO.

[3] = target: T2, RGS8 (Homo sapiens, UniProt P57771); design: method as in earlier work; details: David Roman, in preparation; cited from earlier work
T2 construct: RGS8 full length; made in house
T2 sequence (P57771 1-180): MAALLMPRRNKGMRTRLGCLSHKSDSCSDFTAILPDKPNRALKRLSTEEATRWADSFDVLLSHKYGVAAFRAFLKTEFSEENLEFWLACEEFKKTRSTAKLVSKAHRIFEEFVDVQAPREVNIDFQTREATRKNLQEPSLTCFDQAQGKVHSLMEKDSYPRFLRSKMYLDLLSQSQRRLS

[4] = target: T2, RGS8; assay: FCPIA, Gαo binding to RGS8; details: no wash, read-out: percent inhibition, RGS8
Procedure: as §1
5nd inhibited Gαo binding to a number of different RGS proteins (Figure 2). […] RGS19 and RGS7 are in the RZ and R7 families, respectively and show less inhibition by 5nd. Linear as well as bridged versions of peptide 5 were tested in the FCPIA since cyclization yields would most likely have been less then 100% in the synthesis of the library leaving some linear peptides present on each bead. […] This may be due to lack of structural rigidity necessary for the correct interaction of the peptide with the RGS protein or a role for chemical reactivity of the disulfide.
Figure 2 Characterization of hit 5. A) and B) Dose response curves for 5nd in the FCPIA with different RGS proteins (RGS Family), (mean ± S.E.M., n = 3) *p < 0.05, **p < 0.01, ***p < 0.001 compared to RGS4 at the same 5nd concentration. C) Peptides were tested at 50 μM as in Figure 1, (mean ± S.E.M., n ≥ 3) *p < 0.05, **p < 0.01, ***p < 0.001 compared to no peptide.
Figure 3 Irreversibility experiments. RGS-biotin on avidin beads was treated with 5nd (100 μM) or 5nm (100 μM) and then washed in buffer (with or without 1 mM DTT) or not washed and put in the FCPIA using RGS4 (A) or RGS8 (B) (mean ± S.E.M., n ≥ 2) *p < 0.05, **p < 0.01, ***p < 0.001 compared to no peptide (100%); #p < 0.05, ##p < 0.01, ###p < 0.001 compared to 5nd no wash.
as §2, with “To cleave RGS4Δ51N from the MBP-His6 construct for MS analysis, MBP-His6-RGS4Δ51N was treated with 15% MBP-His6-TEV protease S219V [11] for 22 hours at 4°C and purified over a Ni-NTA column.” left out

[5] = target: T1, RGS4; assay: FCPIA (flow cytometry protein interaction assay), RGS4-Gαo interaction, wild type RGS4 (MBP-RGS4Δ51N); format: binding; details: peptide 100 μM
[6] = peptide 50 μM, 25 nM Gαo-Alexa Fluor-532, 5 nM RGS4-biotin

Compound	% Inhibition of RGS4-Gαo [1, 6]	solubility [2] [µM]	also measured
CC(=O)N[C@@H](Cc1ccc(O)cc1)C(=O)N[C@@H](CC(N)=O)C(=O)N[C@H]1CSSC[C@@H](C(=O)N[C@@H](CCCCN)C(N)=O)NC(=O)[C@H](CCC(=O)O)NC(=O)CNC(=O)[C@H](CCC(N)=O)NC1=O [Peptide 1ad, Ac-YNCQGECK-NH2] (Ac-YNCQGECK-NH2; disulfide 3-7)	14 ± 6%	123 (≈ 121 µg/mL)	–
CC(C)C[C@H](NC(=O)CNC(=O)[C@H](CCCCN)NC(=O)[C@H](CS)NC(=O)[C@H](Cc1c[nH]c2ccccc12)NC(=O)[C@@H](N)Cc1ccc(O)cc1)C(=O)N[C@@H](CS)C(=O)N[C@@H](CCCCN)C(N)=O [Peptide 5nl, YWCKGLCK-NH2] (H-YWCKGLCK-NH2)	–	465 (≈ 465 µg/mL)	–
CSCC[C@@H]1NC(=O)[C@@H](NC(=O)[C@@H](NC(=O)[C@@H](N)CCCCN)C(C)C)CSSC[C@@H](C(=O)N[C@H](C(N)=O)[C@@H](C)O)NC(=O)CNC(=O)CNC1=O [Peptide 4nd, KVCMGGCT-NH2] (H-KVCMGGCT-NH2; disulfide 3-7)	4 ± 3%	≥ 470	–
NCCCC[C@H](NC(=O)[C@@H]1CSSC[C@H](NC(=O)[C@H](CC(N)=O)NC(=O)[C@@H](N)Cc2ccc(O)cc2)C(=O)N[C@@H](CCC(N)=O)C(=O)NCC(=O)N[C@@H](CCC(=O)O)C(=O)N1)C(N)=O [Peptide 1nd, YNCQGECK-NH2] (H-YNCQGECK-NH2; disulfide 3-7)	2 ± 4%	≥ 420	–
CC[C@H](C)[C@@H]1NC(=O)CNC(=O)[C@H]([C@@H](C)O)NC(=O)[C@@H](NC(=O)[C@H](CCCCN)NC(=O)[C@@H](NC(C)=O)C(C)C)CSSC[C@@H](C(=O)N[C@@H](CCC(=O)O)C(N)=O)NC1=O [YJ34, Ac-Val-Lys-c [Cys-Thr-Gly-Ile-Cys]-Glu-NH2, S-S, reference compound] (Ac-VKCTGICE-NH2; disulfide 3-7)	–	80 (≈ 71.3 µg/mL)	% Inhibition of RGS4-Gαo ([1]; peptide 40 μM): -17 ± 4 (40 μM) %
COS(=NS(=O)(=O)c1ccc(Cl)cc1)c1ccc([N+](=O)[O-])cc1 (stereo not drawn) [CCG-4986, methyl N-[(4-chlorophenyl)sulfonyl]-4-nitrobenzenesulfinimidoate]	–	–	activity against RGS8 [3]: no activity
CC(=O)N[C@@H](CC(C)C)C(=O)N[C@H](C(=O)N[C@H]1CSSC[C@@H](C(=O)N[C@@H](CCC(N)=O)C(N)=O)NC(=O)[C@H](Cc2ccc(O)cc2)NC(=O)CNC(=O)[C@H](CCCCN)NC1=O)C(C)C [Peptide 3ad, Ac-LVCKGYCQ-NH2] (Ac-LVCKGYCQ-NH2; disulfide 3-7)	10 ± 3%	427 (≈ 407 µg/mL)	–
CSCC[C@@H]1NC(=O)[C@@H](NC(=O)[C@@H](NC(=O)[C@H](CCCCN)NC(C)=O)C(C)C)CSSC[C@@H](C(=O)N[C@H](C(N)=O)[C@@H](C)O)NC(=O)CNC(=O)CNC1=O [Peptide 4ad, Ac-KVCMGGCT-NH2] (Ac-KVCMGGCT-NH2; disulfide 3-7)	9 ± 6%	459 (≈ 384 µg/mL)	–
NCCCC[C@H](N)C(=O)N[C@@H](Cc1c[nH]cn1)C(=O)N[C@H]1CSSC[C@@H](C(=O)N[C@@H](Cc2ccc(O)cc2)C(N)=O)NC(=O)[C@H](Cc2ccccc2)NC(=O)CNC(=O)[C@H](Cc2ccc(O)cc2)NC1=O [Peptide 6nd, KHCYGFCY-NH2] (H-KHCYGFCY-NH2; disulfide 3-7)	–	–	% Inhibition of RGS4-Gαo ([1]; peptide 25 μM): 23 ± 15 (25 μM) * %; Buffer Solubility [2]: Low
CC(=O)N[C@@H](CCCCN)C(=O)N[C@@H](Cc1c[nH]cn1)C(=O)N[C@H]1CSSC[C@@H](C(=O)N[C@@H](Cc2ccc(O)cc2)C(N)=O)NC(=O)[C@H](Cc2ccccc2)NC(=O)CNC(=O)[C@H](Cc2ccc(O)cc2)NC1=O [Peptide 6ad, Ac-KHCYGFCY-NH2] (Ac-KHCYGFCY-NH2; disulfide 3-7)	27 ± 4*** %	421 (≈ 446 µg/mL)	–
C[C@@H](O)[C@@H]1NC(=O)CNC(=O)[C@H](Cc2ccccc2)NC(=O)[C@@H](NC(=O)[C@@H](NC(=O)CN)[C@@H](C)O)CSSC[C@@H](C(=O)N[C@@H](Cc2c[nH]c3ccccc23)C(N)=O)NC1=O [Peptide 2nd, GTCFGTCW-NH2] (H-GTCFGTCW-NH2; disulfide 3-7)	19 ± 3** %	464 (≈ 404 µg/mL)	–
CC(=O)N[C@@H](Cc1ccc(O)cc1)C(=O)N[C@@H](Cc1c[nH]c2ccccc12)C(=O)N[C@H]1CSSC[C@@H](C(=O)N[C@@H](CCCCN)C(N)=O)NC(=O)[C@H](CC(C)C)NC(=O)CNC(=O)[C@H](CCCCN)NC1=O [Peptide 5ad, Ac-YWCKGLCK-NH2] (Ac-YWCKGLCK-NH2; disulfide 3-7)	37 ± 3*** %	464 (≈ 482 µg/mL)	–
CC(C)C[C@H](N)C(=O)N[C@H](C(=O)N[C@H]1CSSC[C@@H](C(=O)N[C@@H](CCC(N)=O)C(N)=O)NC(=O)[C@H](Cc2ccc(O)cc2)NC(=O)CNC(=O)[C@H](CCCCN)NC1=O)C(C)C [Peptide 3nd, LVCKGYCQ-NH2] (H-LVCKGYCQ-NH2; disulfide 3-7)	12 ± 2%	≥ 470	–
CC(=O)N[C@@H](Cc1ccc(O)cc1)C(=O)N[C@@H](Cc1c[nH]c2ccccc12)C(=O)N[C@@H](CS)C(=O)N[C@@H](CCCCN)C(=O)NCC(=O)N[C@@H](CC(C)C)C(=O)N[C@@H](CS)C(=O)N[C@@H](CCCCN)C(N)=O [Peptide 5al, Ac-YWCKGLCK-NH2] (Ac-YWCKGLCK-NH2)	–	460 (≈ 479 µg/mL)	–
CC(=O)NCC(=O)N[C@H](C(=O)N[C@H]1CSSC[C@@H](C(=O)N[C@@H](Cc2c[nH]c3ccccc23)C(N)=O)NC(=O)[C@H]([C@@H](C)O)NC(=O)CNC(=O)[C@H](Cc2ccccc2)NC1=O)[C@@H](C)O [Peptide 2ad, Ac-GTCFGTCW-NH2] (Ac-GTCFGTCW-NH2; disulfide 3-7)	–	30 (≈ 27.4 µg/mL)	% Inhibition of RGS4-Gαo ([1]; peptide 10 μM): 10 ± 4 (10 μM) %
CC(C)C[C@@H]1NC(=O)CNC(=O)[C@H](CCCCN)NC(=O)[C@@H](NC(=O)[C@H](Cc2c[nH]c3ccccc23)NC(=O)[C@@H](N)Cc2ccc(O)cc2)CSCSC[C@@H](C(=O)N[C@@H](CCCCN)C(N)=O)NC1=O [Peptide 5nm, YWCKGLCK-NH2] (H-YWCKGLCK-NH2; linker 3-7 via CH2)	–	≥ 470	inhibition at 100 µM [4]: 18 ± 1%; % Inhibition of RGS4-Gαo [5]: 3 ± 0.1 (100 μM) %
